{"source": "patent US20210371817A1", "about": "“COMPOSITIONS AND METHODS FOR PRECISE PATTERNING OF POSTERIOR NEUROECTODERM FROM HUMAN PLURIPOTENT STEM CELLS” (WISCONSIN ALUMNI RESEARCH FOUNDATION, priority 2013, published 2021)", "key": {"neuromesodermal cultures": {"tested_on": "neuromesodermal cultures", "experiment": "Effect of signaling pathway inhibitors on neuromesodermal identity (Sox2 and T by flow cytometry)", "conditions": "for Sox2+ cells: LY-294002 10 μM, U0126 10 μM, GF109203X 3 μM, or all three at 1 μM, after 2 days", "text": "(FIG. 13A) Timeline of neuromesodermal differentiation and inhibitor addition. (FIG. 13B) Neuromesodermal identity assessed by Sox2 and Brachyury (T) expression after two days. Grey histograms, IgG control. Red histograms, label of interest. LY, LY-294002; U0126, U0126; Gf, GF109203X.\nIn an attempt to identify which downstream signaling pathways are responsible for FGF's effects, we performed our protocol with various combinations of a PI3K inhibitor (LY-294002), an MEK inhibitor (U0126), and a PKC inhibitor (GF109203X), and measured Sox2 and T levels using flow cytometry."}, "[1]": {"tested_on": "neuromesodermal progenitors", "experiment": "Accelerated neuronal differentiation of neuromesodermal progenitors", "assay_type": "cell-based, human", "conditions": "DAPT 1 μM; within 7 days", "method": "For assessment of columnar identity by FoxP1 expression, cells were bulk passaged by scraping and re-seeded in VTN-NC-coated chamber slides at a 1:200 ratio in E6 medium containing 1 μM RA and 100 nM purmorphamine (PM; Cayman Chemicals). RA/PM treatment was carried out for 7 days, followed by an additional 7 day treatment with 10 ng/ml brain-derived neurotrophic factor (BDNF; Peprotech), 10 ng/ml glial-derived neurotrophic factor (GDNF; Peprotech), and cAMP (1 μM; Sigma). For accelerated neuronal differentiation, neuromesodermal progenitors were treated with 1 μM RA, 2 μM PM, and 1 μg/ml recombinant sonic hedgehog (SHH) for 2 days, then passaged with ACCUTASE® and re-seeded in VTN-NC coated chamber slides at 1×10^4 cells/cm^2 in E6 medium containing 1 μM RA, 1 μM DAPT (Cayman Chemicals), 10 ng/ml BDNF, 10 ng/ml GDNF, and 1 μM cAMP for 7 days.\nImmunocytochemistry. Immunocytochemistry was conducted as previously described. Primary antibodies against Sox2 (1:500), brachyury (1:500), Pax6 (rabbit; 1:500; Covance), N-cadherin (mouse; 1:500; BD Biosciences), Otx2 (goat; 1:500; R&D Systems), HoxB4 (rat; 1:50; DSHB), HoxD10 (goat; 1:500; R&D Systems), NeuN (mouse; 1:100; Millipore), Hb9 (mouse; 1:50; DSHB), ISL1 (mouse; 1:100; DSHB), and FoxP1 (rabbit; 1:20,000; Abcam) were utilized. Samples were visualized on a Nikon Ti-E epifluorescence microscope or a Nikon AIR confocal microscope. […]"}, "neuromesodermal cells": {"tested_on": "neuromesodermal cells", "experiment": "Pax6 and HoxD10 expression after GDF11 with or without dorsomorphin, then RA", "assay_type": "cell-based, human", "conditions": "dorsomorphin with GDF11 and throughout RA treatment", "text": "(FIG. 7A) Timeline of differentiation. (FIG. 7B) qPCR assessment of lumbar/sacral gene expression at day 12. A minimum concentration of GDF11 is required to activate HoxD10 and HoxA11. Each gene is normalized to the maximum GDF11 dose. Error bars are standard deviation calculated from duplicate reactions. (FIG. 7C) Expression of Pax6 in response to increased GDF11 concentrations. Data were collected by flow cytometry and represented as mean±standard deviation calculated from two biological replicates. Sox2 was uniformly expressed regardless of GDF11 treatment (data not shown). […] Grey histograms, IgG control; Red histograms, Pax6. Data are representative of two biological replicates. […] Percentages were quantified as HoxD10 labeling relative to DAPI-stained nuclei (>2500 total cells counted per sample). Scale bars, 100 μm\nAfter neural tube closure in vivo, opposing gradients of TGFβ and SHH signaling produce distinct dorsal and ventral domains from which sensory neurons, interneurons, and motor neurons arise. Pax6, which has been identified as a neuroectoderm fate determinant, is expressed throughout most of the neural tube but is absent from the most dorsal and ventral domains. […] The ability of GDF11 to control rostral/caudal patterning is mediated by signaling via ALK5 and activation of the SMAD2/3 complex. […]"}, "H9 hESCs": {"tested_on": "H9 hESCs", "experiment": "HOX, OTX2 and T gene expression by RT-PCR/qPCR during hESC differentiation with morphogens", "assay_type": "cell-based, human", "method": "hPSC differentiation. hPSCs were washed once with phosphate-buffered saline (PBS; Invitrogen), dissociated with ACCUTASE® (Invitrogen) for 3 min, and collected by centrifugation. hPSCs were then seeded onto VTN-NC-coated plates in E8 medium containing 10 μM ROCK inhibitor (Y27632; R&D Systems). Seeding density was 2×10^5 cells/cm^2. The following day, the cells were switched to E6 medium (same composition as E8 medium minus FGF2 and TGFβ 1). Morphogen treatments were then carried out according to the figures in the text. Cells were supplemented with FGF8b (100-200 ng/ml; Peprotech), CHIR99021 (3-6 μM; Tocris), and/or RA (3 μM; Sigma).\nReverse transcriptase polymerase chain reaction (RT-PCR). Total RNA was extracted from cells using TRIZOL® reagent (Invitrogen) according to the manufacturer's instructions. RNA was then subjected to reverse-transcription using a Thermoscript™ RT-PCR kit (Invitrogen) in a 20 μL mixture according to the manufacturer's instructions. The resulting cDNA was then amplified in a 25 μL mixture containing 10×PCR buffer, 0.2 mM dNTP, 1.5 mM MgCl2, 0.5 μM of each primer, and 1 U Taq DNA polymerase (Invitrogen). Amplified products were resolved on 2% agarose gels containing SYBR Safe (Invitrogen) and visualized with a VersaDoc (BioRad). Primer sequences can be found in Table 3. All amplifications were carried out for 35 cycles. HOXC5 and HOXC6 were amplified at 58° C., all others with an annealing temperature of 55° C.\nPropagation and differentiation of neuromesodermal progenitors. H9 hESCs (passage 25-45), H9 ishcat2 hESCs (passage 33-43), and IMR90-4 iPSCs (passage 31-40) were maintained in E8 medium on MATRIGEL© (BD Biosciences) as previously described. To initiate differentiation, hPSCs were passaged with ACCUTASE© (Life Technologies) onto vitronectin (VTN-NC)-coated plates at a density of 1×10^5 cells/cm^2 as previously described. The following day, cells were changed to E6 medium. 24 h later, cells were changed to E6 medium containing 200 ng/ml FGF8b (Peprotech). 24 h later, cells were washed once with 2 ml PBS, treated with ACCUTASE® for 2 min, and removed from the surface by gentle pipetting. After collection by centrifugation, cells were gently resuspended in E6 medium containing 200 ng/ml FGF8b and CHIR99021 (CHIR, concentration varied depending on cell line; Tocris) and re-seeded on VTN-NC-coated plates at a density of 1.5×10^5 cells/cm^2. Medium was not changed until 48 h after passaging. This passaging process was repeated on day 3 of CHIR 99021 treatment (re-seed density of 1.2×10^5 cells/cm^2) if extended neuromesodermal propagation was required, and 50 ng/ml GDF11 (Peprotech) was added on day 4 of CHIR 99021 treatment to initiate lumbar patterning. Cells were changed to E6 medium containing 1 μM retinoic acid (RA; Sigma) to facilitate neural transition.\nqPCR. Total RNA was extracted from cultured cells using TRIZOL® (Life Technologies) according to the manufacturer's instructions. After isolation, 2-5 μg of total RNA was immediately subjected to reverse transcription using the Thermoscript™ RT-PCR kit (Life Technologies) in a 20 μL reaction according to the manufacturer's instructions. […] For all experiments, ΔΔCt values for each gene were calculated relative to ribosomal protein S18 (RPS18) RNA levels and converted to fold difference assuming 100% primer efficiency, then normalized to maximum expression levels as indicated in each figure legend. […]"}, "[2]": {"tested_on": "neuromesodermal progenitors", "experiment": "Neuroectoderm or mesoderm fate transition of neuromesodermal progenitors by flow cytometry", "assay_type": "cell-based, human", "method": "Assessment of neuroectoderm or mesoderm fate transition by flow cytometry. Grey histogram, IgG control; red histogram, antigen of interest. Data are presented as mean±standard deviation calculated from two biological replicates. (FIG. 8B) For experiments in panels FIGS. 8C-8F, neuromesodermal propagation was halted by removing FGF8b/CHIR 99021/GDF11 and adding RA. Assays were conducted after 4 days of RA treatment. (FIG. 8C) HOX profiles generated after RA treatment. Each gene is normalized to its maximum expression. Error bars are standard deviation calculated from duplicate reactions. (FIG. 8D) HoxB4 and HoxD10 expression in neuroepithelial cultures after RA treatment. Scale bars, 100 m. (FIG. 8E) Purity of Sox2, Pax6, HoxB4, and HoxD10 after 4 days of RA treatment. Sox2, Pax6, and HoxB4 were quantified using flow cytometry and HoxD10 was quantified by manual counting of dissociated cells ([…]). Error bars are standard deviation calculated from at least two biological replicates. […] (FIG. 8F) Motor neuron differentiation at cervical, thoracic, and lumbar spinal cord depths, where the motor neuron precursors show region-specific patterns of FoxP1, Isl1, and Hb9 co-expression. (FIG. 8G) Neuronal maturation from cervical, thoracic, and lumbar patterned NSCs, as assessed by immunocytochemistry (top panel; DAPI (blue) is overlaid in all images; Scale bars, 20 m) and RT-PCR (50 cycles; bottom panel).\nFlow cytometry. Flow cytometry was conducted as described in the Examples above. Primary antibodies against Sox2 (mouse; 1:1000; Millipore), brachyury (goat; 1:200; R&D Systems), Pax6 (mouse; 1:200; DSHB), and HoxB4 (rat; 1:50; DSHB) were utilized. Samples were run on a FACSCaliber (BD Biosciences) and data were analyzed using Cyflogic software. Positive events were quantified by gating above the top 1% of species-matched IgG controls.\nWe next evaluated the transition of neuromesodermal progenitors to definitive neural progenitors. RA secreted from somites in response to declining FGF signaling elicits dorsal/ventral patterning and expression of the neuroectoderm marker Pax6 in vivo^16, 26, which led us to suspect RA serves as both the neuroectoderm fate switch and HOX ‘stop signal’. We first investigated the ability of RA to initiate neuroectoderm specification from neuromesodermal progenitors. […] At any point in neuromesodermal differentiation, the addition of RA generated highly pure (>83%) Pax6^+ neuroectoderm (FIGS. 8B-8E and FIGS. 9A-9C)."}, "IMR90-4 iPSCs": {"tested_on": "IMR90-4 iPSCs", "experiment": "Neuromesodermal differentiation from IMR90-4 iPSCs", "assay_type": "cell-based, human", "method": "FIGS. 11A-11C show neuromesodermal differentiation from IMR90-4 iPSCs. (FIG. 11A) Timeline of neuromesodermal differentiation. (FIG. 11B) Neuromesodermal identity assessed during differentiation in 2 or 3 μM CHIR 99021. Grey histograms, IgG control. Red histograms, label of interest. Data are presented as mean±standard deviation calculated from two biological replicates. […] (FIG. 11C) Colinear HOX activation observed by qPCR during neuromesodermal differentiation. Each gene is normalized to its maximum expression. Error bars are standard deviation calculated from duplicate reactions.\nDifferentiation was conducted according to the protocol of FIG. 11A. Neuromesodermal identity was assessed during differentiation in both 2 and 3 μM CHIR (FIG. 11B). Grey histograms are IgG control, and red histograms are the label of interest. […] During neuromesodermal propagation, progressive HOX activation was verified by qPCR (FIG. 11C)."}, "[3]": {"conditions": "neuromesodermal progenitors exposed to E6 medium with the substance"}}, "note": "“Also recorded” adds a separate entry of the source."}
{"smiles": "CN(C)CCCn1cc(C2=C(c3c[nH]c4ccccc34)C(=O)NC2=O)c2ccccc21", "note": "[GF109203X]", "values": [{"measurement": "maximum dose that did not kill all cells", "setting": "neuromesodermal cultures", "value": 3, "unit": "µM"}, {"measurement": "Sox2+ cells", "setting": "neuromesodermal cultures", "value": 99, "unit": "%"}]}
{"smiles": "N#CC(=C(/N)Sc1ccccc1N)/C(C#N)=C(\\N)Sc1ccccc1N", "note": "[U0126]", "values": [{"measurement": "Sox2+ cells", "setting": "neuromesodermal cultures", "value": 99, "unit": "%"}]}
{"smiles": "C[C@H](NC(=O)Cc1cc(F)cc(F)c1)C(=O)N[C@H](C(=O)OC(C)(C)C)c1ccccc1", "note": "[DAPT]", "values": [{"measurement": "NeuN+ neuronal lineage cells", "setting": "[1]", "value": "> 95", "unit": "%"}]}
{"smiles": "O=c1cc(N2CCOCC2)oc2c(-c3ccccc3)cccc12", "note": "[LY-294002]", "values": [{"measurement": "Sox2+ cells", "setting": "neuromesodermal cultures", "value": 99, "unit": "%"}]}
{"smiles": "c1cc(-c2cnn3cc(-c4ccc(OCCN5CCCCC5)cc4)cnc23)ccn1", "note": "[dorsomorphin]", "values": [{"measurement": "Pax6+ cells", "setting": "neuromesodermal cells", "value": "83±4", "unit": "%"}]}
{"smiles": "Cc1c[nH]c(-c2cnc(NCCNc3ccc(C#N)cn3)nc2-c2ccc(Cl)cc2Cl)n1", "note": "[CHIR 99021]", "values": [{"measurement": "HOX gene activation (RT-PCR)", "setting": "H9 hESCs; morphogen added to E6 medium, up to 4 days", "value": "could induce Hox gene expression; also recorded: induced progressive HOX activation from HOXA1 down to HOXC5"}, {"measurement": "OTX2 expression reduction compared to RA", "setting": "H9 hESCs; qPCR day 5, CHIR 99021 3 μM, RA 1 μM", "value": "> 100", "unit": "fold"}, {"measurement": "Effect on ability of RA to induce Pax6 expression", "setting": "[2]; added with RA", "value": "repressed its ability to induce Pax6 expression"}, {"measurement": "Brachyury+ cells", "setting": "[2]; [3]", "value": "96±1", "unit": "%"}, {"measurement": "Sox2+ cells", "setting": "[2]; [3]", "value": "50±8", "unit": "%"}, {"measurement": "Neuromesodermal identity", "setting": "IMR90-4 iPSCs; 2 μM CHIR", "value": "maintained the neuromesodermal state"}, {"measurement": "Neuromesodermal identity", "setting": "IMR90-4 iPSCs; 3 μM CHIR", "value": "resulted in a mesodermal shift"}]}
